US8546376B2, “Pharmaceutical compounds” (Almac Discovery Limited, priority 2009, dated 2013)
Where a name gives a salt, the structure may show the parent alone.

Columns and labels:
Format in all cases: biochemical
AKT3 = molecular target: T1, AKT3 (Homo sapiens, UniProt Q9Y243); test: AKT Kinase Assay (IMAP fluorescent polarisation) vs AKT3; settings: activated AKT3, FAM Crosstide substrate
T1 construct: purchased SignalChem
Method: (§1) Testing of the compounds was performed using an AKT Kinase Assay:
(§2) Activated AKT isoforms 1, 2 and 3 were assayed utilising a 5′ FAM Crosstide (Seq. GRPRTSSFAEG-OH). The extent of kinase phosphorylation was determined by fluorescent polarisation using IMAP progressive binding reagent, which introduces binding beads which allow the reagent to specifically bind to phosphate residues via covalent co-ordination complex bonds.
(§3) iMAP binding solution stops Crosstide/kinase interaction and specifically binds phosphorylated substrates. The degree of phosphorylation is determined by fluorescent polarisation (excitation 485 nm; emission 528 nm) or the reduction in speed of rotation of the excited substrate.
(§4) The following materials were used in the assay: • a) Activated AKT isoforms (SignalChem.) dissolved in Complete Reaction buffer at a pre-determined concentration selected so that the assay was carried out in the linear range. • b) AKT substrate peptide: FAM Crosstide (R7110) Molecular Devices, diluted in complete reaction buffer. • c) iMAP Progressive Screening Express Kit (R8127) Molecular Devices • d) Complete Reaction Buffer containing 0.1% BSA, 10 mM Tris-HCl, 10 mM MgCl2, 0.05% NaN3 and 0.01% phosphate free BSA, 1 mM DTT • e) Progressive Binding Solution containing 75% Buffer A, 25% Buffer B and low volume Binding Reagent which contains the binding entity for the assay • f) ATP diluted in complete reaction buffer • g) Black polystyrene 384 well assay plates (Nunc). • h) Biotek Synergy 4 Hybrid Plate reader.
(§5) 5 μl of test compound was dissolved in DMSO (Sigma Aldrich) and serially diluted in complete reaction buffer to give a fourteen point half log dose response and plated into 384 well black plates. The compound was incubated at room temperature with activated AKT isoform (5 μl) at the pre-determined concentration, for 45 minutes.
(§6) 2.5 μl of ATP solution mixed with 2.5 μl of AKT substrate peptide (FAM Crosstide (R7110) Molecular Devices) were dispensed into each well and the plate centrifuged at 1000 rpm for 20 seconds to ensure homogenous mixing of reagents. The reaction mix was incubated in the dark for one hour at room temperature.
(§7) The kinase reaction was stopped by the addition of Progressive Binding Solution and the mixture allowed to equilibrate for one hour in the dark, at room temperature.
(§8) The fluorescent polarisation generated in each well was determined using a […] Synergy 4 Hybrid plate reader. In brief, each reaction solution was excited at 485 nm with the emission measured at 528 nm in both the parallel and perpendicular pathway.
(§9) The polarisation value generated in each well was calculated by Gen5 software (Biotek) and the % inhibition of kinase activity compared to vehicle control was calculated via GraphPad Prism. IC50 values for each compound were calculated by non-linear regression analysis using Prism software.
(§10) All plates were internally controlled by two methods. Firstly, by calculating the signal:noise ratio; based on kinase polarisation without inhibitor and polarisation generated by complete reaction buffer in the absence of activated kinase. Secondly by determining IC50 values generated by known inhibitors of the AKT isoforms.

AKT2 = molecular target: T2, AKT2 (Homo sapiens, UniProt P31751); test: AKT Kinase Assay (IMAP fluorescent polarisation) vs AKT2; settings: activated AKT2, FAM Crosstide substrate
T2 construct: purchased SignalChem
Method: as §1, §2, §3, §4, §5, §6, §7, §8, §9, §10

AKT1 = molecular target: T3, AKT1 (Homo sapiens, UniProt P31749); test: AKT Kinase Assay (IMAP fluorescent polarisation) vs AKT1; settings: activated AKT1, FAM Crosstide substrate
T3 construct: purchased SignalChem
Method: as §1, §2, §3, §4, §5, §6, §7, §8, §9, §10

T1 sequence (Q9Y243 whole entry): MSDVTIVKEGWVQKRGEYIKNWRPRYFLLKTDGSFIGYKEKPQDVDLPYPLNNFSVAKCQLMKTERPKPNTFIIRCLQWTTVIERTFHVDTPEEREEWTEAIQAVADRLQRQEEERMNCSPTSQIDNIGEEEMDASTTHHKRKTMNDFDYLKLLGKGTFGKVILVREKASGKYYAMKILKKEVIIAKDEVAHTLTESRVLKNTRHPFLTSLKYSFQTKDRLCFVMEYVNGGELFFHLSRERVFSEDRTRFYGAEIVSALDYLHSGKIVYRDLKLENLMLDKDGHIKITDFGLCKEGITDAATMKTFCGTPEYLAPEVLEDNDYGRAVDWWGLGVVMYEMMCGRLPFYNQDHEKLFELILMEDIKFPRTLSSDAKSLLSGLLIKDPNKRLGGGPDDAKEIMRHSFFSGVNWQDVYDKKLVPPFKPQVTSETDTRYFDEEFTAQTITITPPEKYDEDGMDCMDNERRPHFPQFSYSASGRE
T2 sequence (P31751 whole entry): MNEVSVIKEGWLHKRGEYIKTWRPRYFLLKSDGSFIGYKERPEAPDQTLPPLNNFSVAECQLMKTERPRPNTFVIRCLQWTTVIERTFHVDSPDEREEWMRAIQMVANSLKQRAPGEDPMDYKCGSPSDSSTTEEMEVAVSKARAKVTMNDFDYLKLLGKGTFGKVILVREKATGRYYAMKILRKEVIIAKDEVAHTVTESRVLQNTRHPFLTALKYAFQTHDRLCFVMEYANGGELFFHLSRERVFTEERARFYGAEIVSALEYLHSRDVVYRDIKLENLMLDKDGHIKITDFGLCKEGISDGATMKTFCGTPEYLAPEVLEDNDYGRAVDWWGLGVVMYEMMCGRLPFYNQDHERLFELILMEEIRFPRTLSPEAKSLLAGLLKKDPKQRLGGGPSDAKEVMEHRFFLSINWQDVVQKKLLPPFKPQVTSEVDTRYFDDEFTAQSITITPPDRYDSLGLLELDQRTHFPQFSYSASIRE
T3 sequence (P31749 whole entry): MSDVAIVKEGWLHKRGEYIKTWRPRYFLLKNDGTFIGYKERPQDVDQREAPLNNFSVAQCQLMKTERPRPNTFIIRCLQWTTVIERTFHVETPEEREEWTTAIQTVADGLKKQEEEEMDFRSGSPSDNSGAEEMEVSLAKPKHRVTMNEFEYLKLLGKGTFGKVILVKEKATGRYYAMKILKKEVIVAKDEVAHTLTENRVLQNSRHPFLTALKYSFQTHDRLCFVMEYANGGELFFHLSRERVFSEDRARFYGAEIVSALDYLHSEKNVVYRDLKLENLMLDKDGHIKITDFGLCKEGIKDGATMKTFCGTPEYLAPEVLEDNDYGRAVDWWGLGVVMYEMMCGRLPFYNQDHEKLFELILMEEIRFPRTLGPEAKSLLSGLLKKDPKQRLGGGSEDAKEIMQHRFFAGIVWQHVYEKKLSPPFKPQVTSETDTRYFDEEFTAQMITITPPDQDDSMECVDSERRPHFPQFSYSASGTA

SMILES	IC50 (AKT3)	IC50 (AKT2)	IC50 (AKT1)
NC1(c2ccc(-c3c(-c4ccccc4)oc4c(OCCO)nccc4c3=O)cc2)CCC1 [Example 125, 3-(4-(1-aminocyclobutyl)phenyl)-8-(2-hydroxyethoxy)-2-phenyl-4H-pyrano[2,3-c]pyridin-4-one]	> 10 µM	1 to 10 µM	≤ 1 µM
NC1(c2ccc(-c3c(-c4ccccc4)oc4cc(Br)ccc4c3=O)cc2)CCC1 [Example 13, 3-[4-(1-Amino-cyclobutyl)-phenyl]-2-phenyl-7-bromo-chromen-4-one]	> 10 µM	1 to 10 µM	1 to 10 µM
Nc1cc2oc(-c3ccccc3)c(-c3ccc(C4(N)CCC4)cc3)c(=O)c2cc1Br [Example 49, 7-Amino-3-[4-(1-amino-cyclobutyl)-phenyl]-6-bromo-2-phenyl-chromen-4-one. TFA]	> 10 µM	> 10 µM	≤ 1 µM
NC1(c2ccc(-c3c(-c4ccccc4)oc4c(C5CC5)nccc4c3=O)cc2)CCC1 [Example 126, hydrochloride]	> 10 µM	1 to 10 µM	≤ 1 µM
NC1(c2ccc(-c3c(-c4ccccc4)oc4c(N5CCNC(=O)C5)cccc4c3=O)cc2)CCC1 [Example 77, 4-{3-[4-(1-Amino-cyclobutyl)-phenyl]-4-oxo-2-phenyl-4H-chromen-8-yl}-piperazin-2-one]	1 to 10 µM	1 to 10 µM	≤ 1 µM
CCc1nn(C)c2c1ccc1c(=O)c(-c3ccc(C4(N)CCC4)cc3)c(-c3ccccc3)oc12 [Example 98, 7-[4-(1-Amino-cyclobutyl)-phenyl]-3-ethyl-1-methyl-8-phenyl-1H-9-oxa-1,2-diaza-cyclopenta[a]naphthalen-6-one hydrochloride]	1 to 10 µM	≤ 1 µM	≤ 1 µM
NC1(c2ccc(-c3c(-c4ccccc4)oc4c(C(=O)O)cccc4c3=O)cc2)CCC1 [Example 107, 3-[4-(1-Amino-cyclobutyl)-phenyl]-4-oxo-2-phenyl-4H-chromene-8-carboxylic acid. trifluoro-acetic acid]	> 10 µM	> 10 µM	1 to 10 µM
CON=c1c(-c2ccc(C3(N)CCC3)cc2)c(-c2ccccc2)oc2ccccc12 [Example 66, 3-[4-(1-Amino-cyclobutyl)-phenyl]-2-phenyl-chromen-4-one O-methyl-oxime]	> 10 µM	1 to 10 µM	≤ 1 µM
NC1(c2ccc(-c3c(-c4ccccc4)oc4c(=O)n(CCO)ccc4c3=O)cc2)CCC1 [Example 43, 3-[4-(1-Amino-cyclobutyl)-phenyl]-7-(2-hydroxy-ethyl)-2-phenyl-7H-pyrano[2,3-c]pyridine-4,8-dione hydrochloride]	> 10 µM	> 10 µM	> 10 µM
CCn1cc2ccc3c(=O)c(-c4ccc(C5(N)CCC5)cc4)c(-c4ccccc4)oc3c2n1 [Example 82, 7-[4-(1-Amino-cyclobutyl)-phenyl]-2-ethyl-8-phenyl-2H-9-oxa-1,2-diaza-cyclopenta[a]naphthalen-6-one hydrochloride]	> 10 µM	≤ 1 µM	≤ 1 µM
NC1(c2ccc(-c3c(-c4ccccc4)oc4c(-n5ccnc5)cccc4c3=O)cc2)CCC1 [Example 74, 3-[4-(1-Amino-cyclobutyl)-phenyl]-8-imidazol-1-yl-2-phenyl-chromen-4-one hydrochloride]	1 to 10 µM	≤ 1 µM	≤ 1 µM
COc1nccc2c(=O)c(-c3ccc(C4(N)CCC4)cc3)c(-c3ccccc3)oc12 [Example 39, 3-[4-(1-Amino-cyclobutyl)-phenyl]-8-methoxy-2-phenyl-pyrano[2,3-c]pyridin-4-one hydrochloride]	1 to 10 µM	≤ 1 µM	≤ 1 µM
NC1(c2ccc(-c3c(-c4ccccc4)oc4c(C5CC5)cccc4c3=O)cc2)CCC1 [Example 54, 3-[4-(1-Amino-cyclobutyl)-phenyl]-8-cyclopropyl-2-phenyl-chromen-4-one hydrochloride]	1 to 10 µM	≤ 1 µM	≤ 1 µM
Cc1nc2ccc3c(=O)c(-c4ccc(C5(N)CCC5)cc4)c(-c4ccccc4)oc3c2[nH]1 [Example 89, 7-[4-(1-Amino-cyclobutyl)-phenyl]-2-methyl-8-phenyl-1H-chromeno[7,8-d]imidazol-6-one]	1 to 10 µM	≤ 1 µM	≤ 1 µM
NC1(c2ccc(-c3c(-c4ccccc4)oc4cc(-c5ccn[nH]5)ccc4c3=O)cc2)CCC1 [Example 17]	> 10 µM	1 to 10 µM	> 10 µM
N#CCOc1ccc2c(=O)c(-c3ccc(C4(N)CCC4)cc3)c(-c3ccccc3)oc2c1Br [Example 110, 2-(3-(4-(1-aminocyclobutyl)phenyl)-8-bromo-4-oxo-2-phenyl-4H-chromen-7-yloxy)acetonitrile]	1 to 10 µM	1 to 10 µM	≤ 1 µM

More lines, now with the values ahead:

IC50 (AKT3)	IC50 (AKT2)	IC50 (AKT1)	SMILES
1 to 10 µM	≤ 1 µM	≤ 1 µM	NC1(c2ccc(-c3c(-c4ccccc4)oc4c5c(ccc4c3=O)NC(=O)CO5)cc2)CCC1 [Example 92, 7-[4-(1-Amino-cyclobutyl)-phenyl]-6-phenyl-1H-4,5-dioxa-1-aza-phenanthrene-2,8-dione]
≤ 1 µM	≤ 1 µM	≤ 1 µM	Cn1cc(-c2nccc3c(=O)c(-c4ccc(C5(N)CCC5)cc4)c(-c4ccccc4)oc23)cn1 [Example 101, 3-[4-(1-Amino-cyclobutyl)-phenyl]-8-(1-methyl-1H-pyrazol-4-yl)-2-phenyl-pyrano[2,3-c]pyridin-4-one hydrochloride]
1 to 10 µM	≤ 1 µM	1 to 10 µM	COc1cc2oc(-c3ccccc3)c(-c3ccc(C4(N)CCC4)cc3)c(=O)c2cc1C(N)=O [Example 10, 3-[4-(1-Amino-cyclobutyl)-phenyl]-7-methoxy-4-oxo-2-phenyl-4H-chromene-6-carboxylic acid amide]
1 to 10 µM	≤ 1 µM	≤ 1 µM	CC(C)n1cc2ccc3c(=O)c(-c4ccc(C5(N)CCC5)cc4)c(-c4ccccc4)oc3c2n1 [Example 84, 7-[4-(1-Amino-cyclobutyl)-phenyl]-2-isopropyl-8-phenyl-2H-9-oxa-1,2-diaza-cyclopenta[a]naphthalen-6-one hydrochloride]
> 10 µM	1 to 10 µM	> 10 µM	NC1(c2ccc(-c3c(-c4ccccc4)oc4ccc(OC(F)(F)F)cc4c3=O)cc2)CCC1 [Example 25, 3-[4-(1-Amino-cyclobutyl)-phenyl]-2-phenyl-6-trifluoromethoxy-chromen-4-one]
> 10 µM	1 to 10 µM	≤ 1 µM	NC1(c2ccc(-c3c(-c4ccccc4)oc4c(ccc5c(I)n[nH]c54)c3=O)cc2)CCC1 [Example 97, 7-[4-(1-Amino-cyclobutyl)-phenyl]-3-iodo-8-phenyl-1H-9-oxa-1,2-diaza-cyclopenta[a]naphthalen-6-one hydrochloride]
1 to 10 µM	1 to 10 µM	1 to 10 µM	Cc1noc(C)c1-c1cccc2c(=O)c(-c3ccc(C4(N)CCC4)cc3)c(-c3ccccc3)oc12 [Example 78, 3-[4-(1-Amino-cyclobutyl)-phenyl]-8-(3,5-dimethyl-isoxazol-4-yl)-2-phenyl-chromen-4-one]
1 to 10 µM	≤ 1 µM	≤ 1 µM	NC1(c2ccc(-c3c(-c4ccccc4)oc4c(-c5cccnc5)cccc4c3=O)cc2)CCC1 [Example 56, 3-[4-(1-Amino-cyclobutyl)-phenyl]-2-phenyl-8-pyridin-3-yl-chromen-4-one]
> 10 µM	1 to 10 µM	1 to 10 µM	NC1(c2ccc(-c3c(-c4ccccc4)oc4cc(F)c(F)cc4c3=O)cc2)CCC1 [Example 23, 3-[4-(1-Amino-cyclobutyl)-phenyl]-6,7-difluoro-2-phenyl-chromen-4-one]
> 10 µM	> 10 µM	≤ 1 µM	NC1(c2ccc(-c3c(-c4ccccc4)oc4c(Br)cccc4c3=O)cc2)COC1 [Example 67, 3-[4-(3-Amino-oxetan-3-yl)-phenyl]-8-bromo-2-phenyl-chromen-4-one]
